Laboratory results taken from PubChem BioAssay (NCI).
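Method: 48-hour compound exposure of cells in 96-well plates, five concentrations, linear interpolation of endpoints. GI50 = concentration required for 50% inhibition of growth. TGI: total growth inhibition.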

Legend:
Test in all cases: NCI-60 cell line screen, 48 h
786-0 renal = tested on: 786-0 renal
A498 renal = tested on: A498 renal
A549 NSCLC = tested on: A549 NSCLC
ACHN renal = tested on: ACHN renal
CAKI-1 renal = tested on: CAKI-1 renal
CCRF-CEM leukemia = tested on: CCRF-CEM leukemia
COLO 205 colon = tested on: COLO 205 colon
DLD-1 colon = tested on: DLD-1 colon
DMS 273 small cell lung = tested on: DMS 273 small cell lung
HCC-2998 colon = tested on: HCC-2998 colon
HCT-116 colon = tested on: HCT-116 colon
HCT-15 colon = tested on: HCT-15 colon
HL-60(TB) leukemia = tested on: HL-60(TB) leukemia
HOP-18 NSCLC = tested on: HOP-18 NSCLC
HOP-62 NSCLC = tested on: HOP-62 NSCLC
HOP-92 NSCLC = tested on: HOP-92 NSCLC
HT29 colon = tested on: HT29 colon
IGROV1 ovarian = tested on: IGROV1 ovarian
K-562 leukemia = tested on: K-562 leukemia
KM12 colon = tested on: KM12 colon
KM20L2 colon = tested on: KM20L2 colon
LOX IMVI melanoma = tested on: LOX IMVI melanoma
LXFL 529 NSCLC = tested on: LXFL 529 NSCLC
M14 melanoma = tested on: M14 melanoma
MALME-3M melanoma = tested on: MALME-3M melanoma
MOLT-4 leukemia = tested on: MOLT-4 leukemia
NCI-H226 lung = tested on: NCI-H226 lung
NCI-H23 lung = tested on: NCI-H23 lung
NCI-H460 lung = tested on: NCI-H460 lung
NCI-H522 lung = tested on: NCI-H522 lung
OVCAR-3 ovarian = tested on: OVCAR-3 ovarian
OVCAR-4 ovarian = tested on: OVCAR-4 ovarian
OVCAR-8 ovarian = tested on: OVCAR-8 ovarian
RPMI-8226 leukemia = tested on: RPMI-8226 leukemia
RXF 393 renal = tested on: RXF 393 renal
SF-268 CNS = tested on: SF-268 CNS
SF-295 CNS = tested on: SF-295 CNS
SF-539 CNS = tested on: SF-539 CNS
SK-MEL-2 melanoma = tested on: SK-MEL-2 melanoma
SK-MEL-28 melanoma = tested on: SK-MEL-28 melanoma
SK-MEL-5 melanoma = tested on: SK-MEL-5 melanoma
SK-OV-3 ovarian = tested on: SK-OV-3 ovarian
SN12C renal = tested on: SN12C renal
SNB-19 CNS = tested on: SNB-19 CNS
SNB-75 CNS = tested on: SNB-75 CNS
SNB-78 CNS = tested on: SNB-78 CNS
SW-620 colon = tested on: SW-620 colon
TK-10 renal = tested on: TK-10 renal
U251 CNS = tested on: U251 CNS
UACC-257 melanoma = tested on: UACC-257 melanoma
UACC-62 melanoma = tested on: UACC-62 melanoma
UO-31 renal = tested on: UO-31 renal
BT-549 breast = tested on: BT-549 breast
DU-145 prostate = tested on: DU-145 prostate
EKVX NSCLC = tested on: EKVX NSCLC
HS 578T breast = tested on: HS 578T breast
MCF7 breast = tested on: MCF7 breast
MDA-MB-231 breast = tested on: MDA-MB-231 breast
MDA-MB-435 = tested on: MDA-MB-435
MDA-N = tested on: MDA-N
NCI/ADR-RES ovarian = tested on: NCI/ADR-RES ovarian
OVCAR-5 ovarian = tested on: OVCAR-5 ovarian
PC-3 prostate = tested on: PC-3 prostate
SR leukemia = tested on: SR leukemia
T-47D breast = tested on: T-47D breast

C1C[OH+]CC[OH+]CCNCC[OH+]CC[OH+]CCN1.N.[Cl-].[Pt+4]
GI50 (786-0 renal): 3.98 µM | TGI (786-0 renal): 39.2 µM | GI50 (A498 renal): 21.3 µM | TGI (A498 renal): 55.1 µM | GI50 (A549 NSCLC): 15.4 µM | TGI (A549 NSCLC): > 100 µM | GI50 (ACHN renal): 4.33 µM | TGI (ACHN renal): 44 µM | GI50 (CAKI-1 renal): 7.5 µM | TGI (CAKI-1 renal): 37.8 µM | GI50 (CCRF-CEM leukemia): 0.62 µM | TGI (CCRF-CEM leukemia): > 100 µM | GI50 (COLO 205 colon): 36.7 µM | TGI (COLO 205 colon): > 100 µM | GI50 (DLD-1 colon): 20.2 µM | TGI (DLD-1 colon): > 100 µM | GI50 (DMS 273 small cell lung): 2.87 µM | TGI (DMS 273 small cell lung): 15.7 µM | GI50 (HCC-2998 colon): 13.5 µM | TGI (HCC-2998 colon): 32.6 µM | GI50 (HCT-116 colon): 10.1 µM | TGI (HCT-116 colon): 65.8 µM | GI50 (HCT-15 colon): 20.2 µM | TGI (HCT-15 colon): 71.6 µM | GI50 (HL-60(TB) leukemia): 1.61 µM | TGI (HL-60(TB) leukemia): > 100 µM | GI50 (HOP-18 NSCLC): 19.9 µM | TGI (HOP-18 NSCLC): > 100 µM | GI50 (HOP-62 NSCLC): 6.11 µM | TGI (HOP-62 NSCLC): 66.3 µM | GI50 (HOP-92 NSCLC): 16.1 µM | TGI (HOP-92 NSCLC): 58.3 µM | GI50 (HT29 colon): 22.1 µM | TGI (HT29 colon): > 100 µM | GI50 (IGROV1 ovarian): 4.55 µM | TGI (IGROV1 ovarian): 34.7 µM | GI50 (K-562 leukemia): 12.7 µM | TGI (K-562 leukemia): > 100 µM | GI50 (KM12 colon): 19 µM | TGI (KM12 colon): 48.7 µM | GI50 (KM20L2 colon): 30.3 µM | TGI (KM20L2 colon): > 100 µM | GI50 (LOX IMVI melanoma): 7.66 µM | TGI (LOX IMVI melanoma): 28.4 µM | GI50 (LXFL 529 NSCLC): 18.2 µM | TGI (LXFL 529 NSCLC): 64 µM | GI50 (M14 melanoma): 5.31 µM | TGI (M14 melanoma): 23.6 µM | GI50 (MALME-3M melanoma): 3.14 µM | TGI (MALME-3M melanoma): 18.3 µM | GI50 (MOLT-4 leukemia): 3.89 µM | TGI (MOLT-4 leukemia): 36.3 µM | GI50 (NCI-H226 lung): 23 µM | TGI (NCI-H226 lung): 77.4 µM | GI50 (NCI-H23 lung): 1.8 µM | TGI (NCI-H23 lung): 12 µM | GI50 (NCI-H460 lung): 1.81 µM | TGI (NCI-H460 lung): 63.9 µM | GI50 (NCI-H522 lung): 12.9 µM | TGI (NCI-H522 lung): 48.1 µM | GI50 (OVCAR-3 ovarian): 4.12 µM | TGI (OVCAR-3 ovarian): 19.4 µM | GI50 (OVCAR-4 ovarian): 2.84 µM | TGI (OVCAR-4 ovarian): 11.6 µM | GI50 (OVCAR-8 ovarian): 17 µM | TGI (OVCAR-8 ovarian): > 100 µM | GI50 (RPMI-8226 leukemia): 10.2 µM | TGI (RPMI-8226 leukemia): 92.7 µM | GI50 (RXF 393 renal): 2.49 µM | TGI (RXF 393 renal): 12.3 µM | GI50 (SF-268 CNS): 1.99 µM | TGI (SF-268 CNS): 14.5 µM | GI50 (SF-295 CNS): 2.96 µM | TGI (SF-295 CNS): 19.7 µM | GI50 (SF-539 CNS): 3.95 µM | TGI (SF-539 CNS): 19.6 µM | GI50 (SK-MEL-2 melanoma): 19.9 µM | TGI (SK-MEL-2 melanoma): 53 µM | GI50 (SK-MEL-28 melanoma): 11.1 µM | TGI (SK-MEL-28 melanoma): 35.7 µM | GI50 (SK-MEL-5 melanoma): 10.3 µM | TGI (SK-MEL-5 melanoma): 25.3 µM | GI50 (SK-OV-3 ovarian): 15.1 µM | TGI (SK-OV-3 ovarian): 60.9 µM | GI50 (SN12C renal): 18.7 µM | TGI (SN12C renal): > 100 µM | GI50 (SNB-19 CNS): 7.22 µM | TGI (SNB-19 CNS): 62.6 µM | GI50 (SNB-75 CNS): 3.59 µM | TGI (SNB-75 CNS): 20.2 µM | GI50 (SNB-78 CNS): 4.15 µM | TGI (SNB-78 CNS): 63.3 µM | GI50 (SW-620 colon): 7.62 µM | TGI (SW-620 colon): > 100 µM | GI50 (TK-10 renal): 8.31 µM | TGI (TK-10 renal): 71.3 µM | GI50 (U251 CNS): 7.19 µM | TGI (U251 CNS): > 100 µM | GI50 (UACC-257 melanoma): 3.19 µM | TGI (UACC-257 melanoma): 10.9 µM | GI50 (UACC-62 melanoma): 3.39 µM | TGI (UACC-62 melanoma): 14.9 µM | GI50 (UO-31 renal): 12.2 µM | TGI (UO-31 renal): 32 µM

O=C(C1OC1c1ccc(O)cc1)C12CC3CC(CC(C3)C1)C2 (stereo not drawn)
TGI (786-0 renal): 48.2 µM | TGI (A498 renal): > 96.1 µM | TGI (A549 NSCLC): > 100 µM | TGI (ACHN renal): > 94.5 µM | TGI (BT-549 breast): > 81.8 µM | TGI (CAKI-1 renal): > 66.1 µM | TGI (CCRF-CEM leukemia): > 41.5 µM | TGI (COLO 205 colon): > 76.9 µM | TGI (DU-145 prostate): > 100 µM | TGI (EKVX NSCLC): > 78.2 µM | TGI (HCC-2998 colon): > 100 µM | TGI (HCT-116 colon): > 69.8 µM | TGI (HCT-15 colon): > 100 µM | TGI (HL-60(TB) leukemia): > 43.4 µM | TGI (HOP-62 NSCLC): > 100 µM | TGI (HOP-92 NSCLC): 57.4 µM | TGI (HS 578T breast): > 100 µM | TGI (HT29 colon): > 100 µM | TGI (IGROV1 ovarian): > 100 µM | TGI (K-562 leukemia): > 61.3 µM | TGI (KM12 colon): > 100 µM | TGI (LOX IMVI melanoma): > 56.1 µM | TGI (M14 melanoma): > 100 µM | TGI (MALME-3M melanoma): 98.9 µM | TGI (MCF7 breast): > 100 µM | TGI (MDA-MB-231 breast): > 100 µM | TGI (MDA-MB-435): > 55 µM | TGI (MDA-N): > 75 µM | TGI (MOLT-4 leukemia): > 55.2 µM | TGI (NCI-H226 lung): > 100 µM | TGI (NCI-H23 lung): > 100 µM | TGI (NCI-H460 lung): > 100 µM | TGI (NCI-H522 lung): 24.7 µM | TGI (NCI/ADR-RES ovarian): > 100 µM | TGI (OVCAR-3 ovarian): > 64.8 µM | TGI (OVCAR-4 ovarian): > 100 µM | TGI (OVCAR-5 ovarian): > 100 µM | TGI (OVCAR-8 ovarian): > 100 µM | TGI (PC-3 prostate): > 100 µM | TGI (RPMI-8226 leukemia): > 73 µM | TGI (RXF 393 renal): > 100 µM | TGI (SF-268 CNS): > 100 µM | TGI (SF-295 CNS): > 100 µM | TGI (SF-539 CNS): > 94.9 µM | TGI (SK-MEL-2 melanoma): > 100 µM | TGI (SK-MEL-28 melanoma): > 100 µM | TGI (SK-MEL-5 melanoma): > 100 µM | TGI (SK-OV-3 ovarian): > 100 µM | TGI (SN12C renal): > 69.7 µM | TGI (SNB-19 CNS): > 100 µM | TGI (SNB-75 CNS): > 100 µM | TGI (SR leukemia): > 100 µM | TGI (SW-620 colon): 70.3 µM | TGI (T-47D breast): 51.6 µM | TGI (TK-10 renal): > 100 µM | TGI (U251 CNS): > 100 µM | TGI (UACC-257 melanoma): > 100 µM | TGI (UACC-62 melanoma): > 100 µM | TGI (UO-31 renal): > 86.1 µM
